Experimental data as given in patent publication US10202361B2, “Pyridazinones as herbicides” (E I DU PONT DE NEMOURS AND COMPANY, priority 2014, dated 2019).
Like-named read-outs stand apart in the source and are kept apart here.

What was measured:
Assay in all cases: Test C pre-/postemergence greenhouse herbicide test
Format in all cases: in vivo
[1] = test system: oilseed rape (Brassica napus); conditions: Oilseed Rape
Procedure, shortened: (§1)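 Plant response is scored on a 0–100 scale, where 100 means complete control, by visual comparison with controls 13 to 15 d after greenhouse treatment. Applications are made pre- and postemergence using a surfactant-containing, non-phytotoxic solvent formulation.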

[2] = test system: kochia (Kochia scoparia); conditions: Postemergence
Procedure, shortened: as §1

[3] = test system: galium (catchweed bedstraw, Galium aparine); conditions: Galium, read-out: Plant response rating; for pest or weed control at 62 g/ha: 62 g ai/ha; for pest or weed control at 125 g/ha: 125 g ai/ha; for pest or weed control at 250 g/ha: 250 g ai/ha
Procedure, shortened: as §1

[4] = test system: barnyardgrass (Echinochloa crus-galli); conditions: Barnyardgrass
Procedure, shortened: as §1

[5] = test system: corn (Zea mays); conditions: Zea mays, Corn, read-out: Plant response rating; for plant injury at 62 g/ha: 62 g ai/ha; for plant injury at 125 g/ha: 125 g ai/ha; for plant injury at 250 g/ha: 250 g ai/ha
Procedure, shortened: as §1

[6] = test system: soybean (Glycine max); conditions: Glycine max, Soybean, read-out: Plant response rating; for plant injury at 62 g/ha: 62 g ai/ha; for plant injury at 125 g/ha: 125 g ai/ha; for plant injury at 250 g/ha: 250 g ai/ha
Procedure, shortened: as §1

[7] = test system: ryegrass, Italian (Italian ryegrass, Lolium multiflorum); conditions: Lolium multiflorum, Ryegrass, Italian, read-out: Plant response rating; for pest or weed control at 31 g/ha: 31 g ai/ha; for pest or weed control at 62 g/ha: 62 g ai/ha; for pest or weed control at 125 g/ha: 125 g ai/ha; for pest or weed control at 250 g/ha: 250 g ai/ha
Procedure, shortened: as §1

[8] = test system: nutsedge, yellow (yellow nutsedge, Cyperus esculentus); conditions: Cyperus, Nutsedge, Yellow, read-out: Plant response rating; for pest or weed control at 31 g/ha: 31 g ai/ha; for pest or weed control at 62 g/ha: 62 g ai/ha; for pest or weed control at 125 g/ha: 125 g ai/ha
Procedure, shortened: as §1

[9] = test system: waterhemp (common waterhemp, Amaranthus rudis); conditions: Waterhemp
Procedure, shortened: as §1

[10] = test system: foxtail, giant (giant foxtail, Setaria faberii); conditions: Setaria faberi, Foxtail, Giant, read-out: Plant response rating; for pest or weed control at 31 g/ha: 31 g ai/ha; for pest or weed control at 62 g/ha: 62 g ai/ha; for pest or weed control at 125 g/ha: 125 g ai/ha; for pest or weed control at 250 g/ha: 250 g ai/ha
Procedure, shortened: as §1

[11] = test system: crabgrass, Large (large crabgrass, Digitaria sanguinalis); conditions: Digitaria sanguinalis, Crabgrass, Large, read-out: Plant response rating; for pest or weed control at 31 g/ha: 31 g ai/ha; for pest or weed control at 62 g/ha: 62 g ai/ha; for pest or weed control at 125 g/ha: 125 g ai/ha; for pest or weed control at 250 g/ha: 250 g ai/ha
Procedure, shortened: as §1

[12] = test system: lambsquarters (Chenopodium album)
Procedure, shortened: as §1

[13] = test system: velvetleaf (Abutilon theophrasti); conditions: Abutilon theophrasti, Velvetleaf, read-out: Plant response rating; for pest or weed control at 62 g/ha: 62 g ai/ha; for pest or weed control at 125 g/ha: 125 g ai/ha; for pest or weed control at 250 g/ha: 250 g ai/ha
Procedure, shortened: as §1

[14] = post-emergence, Postemergence, 31 g ai/ha

Q: How did the Plant response rating ([1]; Postemergence, 31 g ai/ha) turn out when `Cc1cc(=O)n(-c2ccc(C(F)(F)F)cc2)nc1Cc1ccnc(C(F)(F)F)c1` [Compound 2, 5-methyl-2-[4-(trifluoromethyl)phenyl]-6-[[2-(trifluoromethyl)-4-pyridinyl]methyl]-3(2H)-pyridazinone] was run?
A: 5

Q: What about the Plant response rating ([1]; Postemergence, 62 g ai/ha) of the same molecule?
A: 30

Q: And the Plant response rating ([1]; Postemergence, 125 g ai/ha)?
A: 45

Q: And the Plant response rating ([1]; Postemergence, 250 g ai/ha)?
A: 50

Q: What about the Plant response rating ([1]; Preemergence, 31 g ai/ha) of the same molecule?
A: 100

Q: What about the Plant response rating ([1]; Preemergence, 62 g ai/ha) of the same molecule?
A: 100

Q: What about the Plant response rating ([1]; Preemergence, 125 g ai/ha) of the same molecule?
A: 100

Q: And the Plant response rating ([1]; Preemergence, 250 g ai/ha)?
A: 100

Q: And the Plant response rating ([2]; 31 g ai/ha)?
A: 80

Q: What about the Plant response rating ([2]; 62 g ai/ha) of the same molecule?
A: 85

Q: And the Plant response rating ([2]; 125 g ai/ha)?
A: 90

Q: And the Plant response rating ([2]; 250 g ai/ha)?
A: 90

Q: And the pest or weed control at 31 g/ha [3, 14]?
A: 50%

Q: And the pest or weed control at 62 g/ha ([3]; post-emergence, Postemergence)?
A: 80%

Q: And the pest or weed control at 125 g/ha ([3]; post-emergence, Postemergence)?
A: 80%

Q: What about the pest or weed control at 250 g/ha ([3]; post-emergence, Postemergence) of the same molecule?
A: 85%

Q: And the pest or weed control at 62 g/ha ([3]; pre-emergence, Preemergence)?
A: 85%

Q: And the pest or weed control at 125 g/ha ([3]; pre-emergence, Preemergence)?
A: 98%

Q: What about the pest or weed control at 250 g/ha ([3]; pre-emergence, Preemergence) of the same molecule?
A: 100%

Q: And the Plant response rating ([4]; Postemergence, 31 g ai/ha)?
A: 5

Q: And the Plant response rating ([4]; Postemergence, 62 g ai/ha)?
A: 10

Q: And the Plant response rating ([4]; Postemergence, 125 g ai/ha)?
A: 10

Q: And the Plant response rating ([4]; Postemergence, 250 g ai/ha)?
A: 25

Q: And the Plant response rating ([4]; Preemergence, 31 g ai/ha)?
A: 65

Q: And the Plant response rating ([4]; Preemergence, 62 g ai/ha)?
A: 70

Q: And the Plant response rating ([4]; Preemergence, 125 g ai/ha)?
A: 90

Q: And the Plant response rating ([4]; Preemergence, 250 g ai/ha)?
A: 98

Q: And the plant injury at 62 g/ha ([5]; post-emergence, Postemergence)?
A: 20%

Q: What about the plant injury at 125 g/ha ([5]; post-emergence, Postemergence) of the same molecule?
A: 20%

Q: What about the plant injury at 250 g/ha ([5]; post-emergence, Postemergence) of the same molecule?
A: 20%

Q: And the plant injury at 31 g/ha ([5]; pre-emergence, Preemergence, 31 g ai/ha)?
A: 35%

Q: What about the plant injury at 62 g/ha ([5]; pre-emergence, Preemergence) of the same molecule?
A: 55%

Q: What about the plant injury at 125 g/ha ([5]; pre-emergence, Preemergence) of the same molecule?
A: 75%

Q: What about the plant injury at 250 g/ha ([5]; pre-emergence, Preemergence) of the same molecule?
A: 75%

Q: What about the plant injury at 31 g/ha [6, 14] of the same molecule?
A: 20%

Q: What about the plant injury at 62 g/ha ([6]; post-emergence, Postemergence) of the same molecule?
A: 30%

Q: What about the plant injury at 125 g/ha ([6]; post-emergence, Postemergence) of the same molecule?
A: 40%

Q: What about the plant injury at 250 g/ha ([6]; post-emergence, Postemergence) of the same molecule?
A: 40%

Q: And the plant injury at 62 g/ha ([6]; pre-emergence, Preemergence)?
A: 25%

Q: What about the plant injury at 125 g/ha ([6]; pre-emergence, Preemergence) of the same molecule?
A: 55%

Q: And the plant injury at 250 g/ha ([6]; pre-emergence, Preemergence)?
A: 60%

Q: What about the pest or weed control at 31 g/ha ([7]; post-emergence, Postemergence) of the same molecule?
A: 5%

Q: What about the pest or weed control at 62 g/ha ([7]; post-emergence, Postemergence) of the same molecule?
A: 5%

Q: And the pest or weed control at 125 g/ha ([7]; post-emergence, Postemergence)?
A: 5%

Q: What about the pest or weed control at 250 g/ha ([7]; post-emergence, Postemergence) of the same molecule?
A: 5%

Q: What about the pest or weed control at 31 g/ha ([7]; pre-emergence, Preemergence) of the same molecule?
A: 5%

Q: And the pest or weed control at 62 g/ha ([7]; pre-emergence, Preemergence)?
A: 15%

Q: What about the pest or weed control at 125 g/ha ([7]; pre-emergence, Preemergence) of the same molecule?
A: 65%

Q: What about the pest or weed control at 250 g/ha ([7]; pre-emergence, Preemergence) of the same molecule?
A: 85%

Q: And the pest or weed control at 31 g/ha ([8]; post-emergence, Postemergence)?
A: 5%

Q: And the pest or weed control at 62 g/ha ([8]; post-emergence, Postemergence)?
A: 5%

Q: And the pest or weed control at 125 g/ha ([8]; post-emergence, Postemergence)?
A: 5%

Q: And the pest or weed control at 250 g/ha ([8]; post-emergence, Postemergence, 250 g ai/ha)?
A: 10%

Q: And the pest or weed control at 31 g/ha ([8]; pre-emergence, Preemergence)?
A: 10%

Q: What about the pest or weed control at 62 g/ha ([8]; pre-emergence, Preemergence) of the same molecule?
A: 25%

Q: And the pest or weed control at 125 g/ha ([8]; pre-emergence, Preemergence)?
A: 35%

Q: And the Plant response rating ([9]; Postemergence, 31 g ai/ha)?
A: 75

Q: What about the Plant response rating ([9]; Postemergence, 62 g ai/ha) of the same molecule?
A: 75

Q: What about the Plant response rating ([9]; Postemergence, 125 g ai/ha) of the same molecule?
A: 75

Q: And the Plant response rating ([9]; Postemergence, 250 g ai/ha)?
A: 80

Q: What about the Plant response rating ([9]; Preemergence, 62 g ai/ha) of the same molecule?
A: 100

Q: And the Plant response rating ([9]; Preemergence, 125 g ai/ha)?
A: 100

Q: And the Plant response rating ([9]; Preemergence, 250 g ai/ha)?
A: 100

Q: What about the pest or weed control at 31 g/ha ([10]; post-emergence, Postemergence) of the same molecule?
A: 10%

Q: What about the pest or weed control at 62 g/ha ([10]; post-emergence, Postemergence) of the same molecule?
A: 10%

Q: What about the pest or weed control at 125 g/ha ([10]; post-emergence, Postemergence) of the same molecule?
A: 25%

Q: What about the pest or weed control at 250 g/ha ([10]; post-emergence, Postemergence) of the same molecule?
A: 25%

Q: What about the pest or weed control at 31 g/ha ([10]; pre-emergence, Preemergence) of the same molecule?
A: 45%

Q: And the pest or weed control at 62 g/ha ([10]; pre-emergence, Preemergence)?
A: 98%

Q: What about the pest or weed control at 125 g/ha ([10]; pre-emergence, Preemergence) of the same molecule?
A: 100%

Q: What about the pest or weed control at 250 g/ha ([10]; pre-emergence, Preemergence) of the same molecule?
A: 100%

Q: And the pest or weed control at 31 g/ha ([11]; post-emergence, Postemergence)?
A: 5%

Q: And the pest or weed control at 62 g/ha ([11]; post-emergence, Postemergence)?
A: 5%

Q: And the pest or weed control at 125 g/ha ([11]; post-emergence, Postemergence)?
A: 15%

Q: And the pest or weed control at 250 g/ha ([11]; post-emergence, Postemergence)?
A: 35%

Q: What about the pest or weed control at 31 g/ha ([11]; pre-emergence, Preemergence) of the same molecule?
A: 75%

Q: And the pest or weed control at 62 g/ha ([11]; pre-emergence, Preemergence)?
A: 80%

Q: And the pest or weed control at 125 g/ha ([11]; pre-emergence, Preemergence)?
A: 100%

Q: And the pest or weed control at 250 g/ha ([11]; pre-emergence, Preemergence)?
A: 100%

Q: What about the Plant response rating ([12]; Postemergence, 31 g ai/ha) of the same molecule?
A: 55

Q: What about the Plant response rating ([12]; Postemergence, 62 g ai/ha) of the same molecule?
A: 70

Q: What about the Plant response rating ([12]; Postemergence, 125 g ai/ha) of the same molecule?
A: 75

Q: And the Plant response rating ([12]; Postemergence, 250 g ai/ha)?
A: 80

Q: And the Plant response rating ([12]; Preemergence, 31 g ai/ha)?
A: 100

Q: And the Plant response rating ([12]; Preemergence, 62 g ai/ha)?
A: 100

Q: And the Plant response rating ([12]; Preemergence, 125 g ai/ha)?
A: 100

Q: And the Plant response rating ([12]; Preemergence, 250 g ai/ha)?
A: 100

Q: What about the pest or weed control at 31 g/ha [13, 14] of the same molecule?
A: 25%

Q: What about the pest or weed control at 62 g/ha ([13]; post-emergence, Postemergence) of the same molecule?
A: 30%

Q: And the pest or weed control at 125 g/ha ([13]; post-emergence, Postemergence)?
A: 30%

Q: And the pest or weed control at 250 g/ha ([13]; post-emergence, Postemergence)?
A: 35%

Q: What about the pest or weed control at 62 g/ha ([13]; pre-emergence, Preemergence) of the same molecule?
A: 40%

Q: And the pest or weed control at 125 g/ha ([13]; pre-emergence, Preemergence)?
A: 85%

Q: What about the pest or weed control at 250 g/ha ([13]; pre-emergence, Preemergence) of the same molecule?
A: 85%
